# Test results from patent US20230127304A1, “NEW INHIBITORS FOR THE KEAP1-NRF2 PROTEIN-PROTEIN INTERACTION” (PRESIDENT AND FELLOWS OF HARVARD COLLEGE, priority 2020, published 2023).
# Entries after “also recorded” stand apart in the source; their conditions may differ. Like-named read-outs stand apart in the source and are kept apart here.
# Legend:
# [1] = target: T1, NRF2-KEAP1 interaction (Mus musculus, UniProt Q9Z2X8); assay: Fluorescence polarization (FP) Level-2 NRF2 peptide displacement; format: binding; conditions: for FP Assay: ability to displace the NRF2-peptide
# T1 construct: mouse KEAP1 Kelch domain (residues 322-624); made in house; host or cells: E. coli BL21(DE3); peptide purchased from GenScript USA Inc
# T1 sequence (Q9Z2X8 322-624): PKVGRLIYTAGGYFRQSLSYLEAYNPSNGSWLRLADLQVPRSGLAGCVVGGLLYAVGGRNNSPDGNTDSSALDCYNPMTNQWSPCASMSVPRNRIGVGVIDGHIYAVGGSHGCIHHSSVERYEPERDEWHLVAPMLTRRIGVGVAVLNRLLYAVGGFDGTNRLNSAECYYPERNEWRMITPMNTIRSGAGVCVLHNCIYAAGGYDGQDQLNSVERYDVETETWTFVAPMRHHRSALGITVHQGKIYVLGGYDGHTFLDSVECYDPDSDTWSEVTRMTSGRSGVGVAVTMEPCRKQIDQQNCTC
# Experimental: The measurements were carried out in triplicate, and the three data points for each concentration averaged. IC50 values were determined by fitting the averaged data points to a four parameter logistic curve using the non-linear least squares method provided by the SciPy library for Python^33. The standard error (see Table 5) on the IC50 was computed by taking the square root of the diagonal of the parameter covariant matrix.
# [2] = target: T1, NRF2-KEAP1 interaction; assay: BLI displacement assay; format: binding; conditions: ability to displace the NRF2-peptide
# Experimental: Bio-layer interferometry binding and displacement assays: NRF2-KEAP1 binding BLI experiments were performed on an Octet RED384 (ForteBio, Menlo Park, Calif., USA) using streptavidin-coated Dip and Read Biosensors (ForteBio) and 384 well plates with 120 μL volume. […] To test for nonspecific binding of GST-KEAP1 protein, reference tips were incubated in buffer alone. […] After measuring association, tips were moved to wells containing buffer, and dissociation was measured for 5 minutes. The data were processed and analysed using the Octet data analysis software version 11.0 (ForteBio, Inc., Menlo Park, Calif., USA). The association-dissociation curve for each concentration was fitted using a 1:1 model given by the equations
# Compound screening by BLI displacement assay: The BLI displacement assays were setup as described above. […] The compounds were used at concentrations of […], and pre-incubated with GST-KEAP1 protein. The association phase was measured in the well containing compound with GST-KEAP1 protein for 10 minutes, and followed by a dissociation phase in buffer for 5 minutes. The inhibition percentage was the average BLI signal in the last 50 seconds of the dissociation phase, normalized against the condition of GST-KEAP1 protein in the absence of compound.
# [3] = target: T2, KEAP1 (Mus musculus, UniProt Q9Z2X8); assay: Ligand-detected NMR (DLB, STD, CPMG); format: binding; conditions: 50 μM compound, 5 μM KEAP1 (2.5 μM for iKeap1 and iKeap2)
# T2 construct: The cleaved mouse KEAP1 Kelch domain (residues 322-624) consists of 308 amino acids; GST (N, cleaved yes); made in house; host or cells: E. coli BL21(DE3)
# T2 sequence (Q9Z2X8 322-624): as above
# [4] = Dynamic light scattering (DLS) aggregation; format: physicochemical; conditions: 20 μM compound, triplicates average
# Experimental: To test the potential aggregation of hits we used DLS experiments. The experiments were performed on a ZS90 Zetasizer instrument (Malvern Panalytical, UK). Measurements were done in triplicate with 10 scans per run (100 s). […] The 20 μM working solution was made from a 1 mM stock of the compound in DMSO. The data was analysed by the built-in software. Compounds were classified as aggregated when the radius of the measured particles was above the minimum colloidal aggregate size (for small molecules) of 50 nm^39.
# [5] = system: NQO1; assay: NQO1 assay; format: cell-based; conditions: Hepa1c1c7 cells, 48 h; for specific activity of NQO1: 0 uM = 1
# Experimental: In this study, the inventors used a […] assay to quantitate the NQO1 levels. […] Specifically, Hepa1c1c7 cells were exposed in 8 replicates to a vehicle ([…]) or 8 serial dilutions of each compound for 48 h. Cells were then lysed and the specific activity of NQO1 was determined using menadione as a substrate.
# [6] = NMR solubility assay; format: physicochemical; conditions: 5 μM to 30 μM, PBS buffer, pH 7.4
# [7] = target: T3, GST-KEAP1 (Mus musculus, UniProt Q9Z2X8); assay: SPR Level-3 steady-state binding
# T3 construct: mouse KEAP1 Kelch domain (residues 322-624); made in house; host or cells: E. coli BL21(DE3)
# T3 sequence (Q9Z2X8 322-624): as above
# Text: Req=(Rmax*C)/(Kd+C)+b, (1)
# The biphasic binding model is given by the equation
# Req=(Rmax,1*C)/(Kd,1+C)+Rmax,2*C/(Kd,2+C)+b, (2)
# [8] = SPR Level-3, independent experiment 2, compounds marked * fitted with biphasic binding model, read-out: Kd, 2
smiles,measurement,setting,value
O=C(Nc1cccc(-c2nnn[nH]2)c1)[C@@H]1C[C@H]2CCCC[C@H]2N1C(=O)c1ccc2ccccc2c1 [iKeap8],FP Assay,[1],able to displace the NRF2 peptide; also recorded: active
same,BLI Assay,[2],able to displace the NRF2 peptide; also recorded: active
same,binding to KEAP1 by ligand-detected NMR,[3],bind to KEAP1
same,Radius,[4],3.340 nm
same,specific activity of NQO1,[5]; 0.156 uM,1.07
same,specific activity of NQO1,[5]; 0.313 uM,1.04
same,specific activity of NQO1,[5]; 0.625 uM,1.06
same,specific activity of NQO1,[5]; 1.25 uM,1.11
same,specific activity of NQO1,[5]; 2.5 uM,1.08
same,specific activity of NQO1,[5]; 5 uM,1.11
same,specific activity of NQO1,[5]; 10 uM,1.16
same,specific activity of NQO1,[5]; 20 uM,1.21
Cc1ccc(S(=O)(=O)Oc2nc3nc4ccccc4nc3nc2OS(=O)(=O)c2ccc(C)cc2)cc1 [iKeap1],Radius,[4],2.306 nm
same,aggregation in NMR solubility assay,[6],does not aggregate
same,CD,[5],2 µM
same,specific activity of NQO1,[5]; 0.156 uM,1.19
same,specific activity of NQO1,[5]; 0.313 uM,1.28
same,specific activity of NQO1,[5]; 0.625 uM,1.41
same,specific activity of NQO1,[5]; 1.25 uM,1.68
same,specific activity of NQO1,[5]; 2.5 uM,2.1
same,specific activity of NQO1,[5]; 5 uM,2.66
same,specific activity of NQO1,[5]; 10 uM,3.53
same,specific activity of NQO1,[5]; 20 uM,4.18
C[C@H]1CCc2c(sc3ncnc(N4CCO[C@@H](CN5C(=O)c6ccccc6C5=O)C4)c23)C1 [iKeap73],FP Assay,[1],not active
same,BLI Assay,[2],active
same,Radius,[4],2.510 nm
O=C(c1cc(-c2ccc3c(c2)OCCO3)nc2ccccc12)N1CCC(Cc2ccccc2)CC1 [iKeap41],FP Assay,[1],not active
same,BLI Assay,[2],active
same,Radius,[4],4.446 nm
O=C1OC(c2ccc([N+](=O)[O-])cc2)=N/C1=C\c1cccc2ccccc12 [iKeap4],CD,[5],15 µM
same,specific activity of NQO1,[5]; 0.156 uM,1.06
same,specific activity of NQO1,[5]; 0.313 uM,1.1
same,specific activity of NQO1,[5]; 0.625 uM,1.21
same,specific activity of NQO1,[5]; 1.25 uM,1.18
same,specific activity of NQO1,[5]; 2.5 uM,1.27
same,specific activity of NQO1,[5]; 5 uM,1.47
same,specific activity of NQO1,[5]; 10 uM,1.75
same,specific activity of NQO1,[5]; 20 uM,2.2
O=S(=O)(Nc1nc2ccccc2nc1N1CCC[C@@H](c2nc3ccccc3[nH]2)C1)c1ccccc1 [iKeap33],FP Assay,[1],not active
same,BLI Assay,[2],active
same,Radius,[4],1.585 nm
O=C1C[C@@H](c2ccc3ncccc3c2)c2c(cc(O)c3c(=O)cc(-c4ccc(O)cc4)oc23)O1 [iKeap22],FP Assay,[1],not active
same,BLI Assay,[2],displacer; also recorded: active
same,binding to KEAP1 by ligand-detected NMR,[3],bind to KEAP1
same,Radius,[4],2.547 nm
CC1=NN(c2ccccc2)C(=O)/C1=C\c1ccc(-c2cc(C(=O)O)ccc2Cl)o1 [iKeap7],FP Assay,[1],displacer of the NRF2 peptide; also recorded: active
same,BLI Assay,[2],displacer of the NRF2 peptide; also recorded: active
same,binding to KEAP1 by ligand-detected NMR,[3],bind to KEAP1
same,Radius,[4],3.663 nm
same,CD,[5],20 µM
same,specific activity of NQO1,[5]; 0.156 uM,1.06
same,specific activity of NQO1,[5]; 0.313 uM,1.08
same,specific activity of NQO1,[5]; 0.625 uM,1.13
same,specific activity of NQO1,[5]; 1.25 uM,1.17
same,specific activity of NQO1,[5]; 2.5 uM,1.3
same,specific activity of NQO1,[5]; 5 uM,1.44
same,specific activity of NQO1,[5]; 10 uM,1.65
same,specific activity of NQO1,[5]; 20 uM,2.08
CC(=O)N/C(=C\c1ccc(Cc2nc3c([nH]2)C(=O)c2ccccc2C3=O)cc1)c1nc2c([nH]1)C(=O)c1ccccc1C2=O [iKeap48],FP Assay,[1],not active
same,BLI Assay,[2],active
same,Radius,[4],25.579 nm
C[C@@H]1Oc2ccc(C(=O)C3CCN(C(=O)[C@H]4C[C@H]4c4cccc5ccccc45)CC3)cc2NC1=O [iKeap74],FP Assay,[1],not active
same,BLI Assay,[2],active
same,Radius,[4],3.034 nm
Cc1cccn2c(=O)c3c(nc12)N1CCCCC[C@H]1[C@]1(C3)C(=O)N(Cc2ccccc2Cl)C(=O)N=C1O [iKeap75],FP Assay,[1],not active
same,BLI Assay,[2],active
same,Radius,[4],3.612 nm
Cc1ccc(C)c(N2C(=O)c3ccc(-c4nc(-c5ccc6[nH]nnc6c5)no4)cc3C2=O)c1 [iKeap27],FP Assay,[1],not active
same,BLI Assay,[2],active
same,Radius,[4],2.643 nm
O=C(O)c1ccc(NC2=C/C(=N\S(=O)(=O)c3ccc4ccccc4c3)c3ccccc3C2=O)cc1 [iKeap2],Kd,"[7]; SPR Level-3, average of three independent experiments, read-out: Kd average",252 nM
same,Kd,[7]; [8],263 nM
same,Kd,"[7]; SPR Level-3, independent experiment 3, compounds marked * fitted with biphasic binding model, read-out: Kd, 3",334 nM
same,Kd,"[7]; steady-state SPR, read-out: Kd (binding affinity to KEAP1)",158 nM
same,IC50,"[1]; Level-2 FP, displacement of TAMRA-NRF2 peptide",2700 nM
same,FP Assay,[1],active
same,BLI Assay,[2],able to displace the NRF2 peptide from KEAP1; also recorded: active
same,binding to KEAP1 by ligand-detected NMR,[3],directly bind to KEAP1
same,Radius,[4],12.492 nm
same,CD,[5],2.7 µM
same,specific activity of NQO1,[5]; 0.156 uM,1.13
same,specific activity of NQO1,[5]; 0.313 uM,1.2
same,specific activity of NQO1,[5]; 0.625 uM,1.33
same,specific activity of NQO1,[5]; 1.25 uM,1.49
same,specific activity of NQO1,[5]; 2.5 uM,1.91
same,specific activity of NQO1,[5]; 5 uM,2.75
same,specific activity of NQO1,[5]; 10 uM,6.08
O=S(=O)(N=C1CCCCCN1)c1ccc2sc(NS(=O)(=O)c3ccc4ccccc4c3)nc2c1 [iKeap9],Kd,[7]; [8],187 nM
same,FP Assay,[1],not able to effectively displace the NRF2 peptide
same,BLI Assay,[2],not able to effectively displace the NRF2 peptide
same,binding to KEAP1 by ligand-detected NMR,[3],bind to KEAP1
same,Radius,[4],1.862 nm
O=S(=O)(O)c1ccc(/N=N\c2ccc(/N=N\c3ccc(O)c4cccc(S(=O)(=O)O)c34)cc2)cc1 [iKeap18],specific activity of NQO1,[5]; 0.156 uM,1.09
same,specific activity of NQO1,[5]; 0.313 uM,1.09
same,specific activity of NQO1,[5]; 0.625 uM,1.19
same,specific activity of NQO1,[5]; 1.25 uM,1.18
same,specific activity of NQO1,[5]; 2.5 uM,1.29
same,specific activity of NQO1,[5]; 5 uM,1.39
same,specific activity of NQO1,[5]; 10 uM,1.58
same,specific activity of NQO1,[5]; 20 uM,1.79
same,CD,[5]; extrapolated (extp),40 (extp) uM
